Assay results published in article PMC9362525 (Diabetologia, 2022).
Read-outs that look alike come from different tables or passages of the source.

What was measured:
[1] = test system: men with T1DM and healthy men; format: in vivo, human
[2] = test system: human subcutaneous primary preadipocytes; format: cell-based; conditions: for reduction of basal and insulin-stimulated glucose uptake: dose-dependent, exposure during differentiation
[3] = test system: patients with type 2 diabetes; format: in vivo, human; conditions: Ipr 50 mg or Met 1000 mg, 24 weeks, n=15 per group
[4] = test system: adult participants, liver steatosis by VCTE; conditions: multivariable adjusted
patients with T2D = format: in vivo, human; conditions: for change in LVEF with acipimox: resting
human delta cells = format: cell-based
[5] = test system: β-cells from Ins2GFP knock-in mice; format: cell-based, mouse
[6] = test system: individuals with prediabetes; conditions: 2 weeks
T2DM and NGT subjects = conditions: for EGP after drug: 10 mg single dose, 4 hours; for increase in renal glucose production (RGP): non-significant
[7] = test system: skeletal muscle of type 2 diabetes patients; conditions: 5 weeks
patients with T2DM = format: in vivo, human; conditions: all
[8] = FAERS 2013 Q1-2020 Q4
participants with NAFLD = format: in vivo, human
human β-cells = format: cell-based
[9] = test system: people with type 2 diabetes; format: in vivo, human; conditions: for achieved HbA1c: 16 weeks, pioglitazone 30mg, sitagliptin 100mg, canagliflozin 100mg
db/db mice retinas = format: in vivo, mouse
[10] = test system: wounds of streptozotocin-diabetic C57BL/6 mice; format: in vivo, mouse
HFD/STZ C57Bl/6 mice = format: in vivo, mouse
C57BL/6J mice = format: in vivo, mouse
[11] = test system: βV59M diabetic mouse islets; format: cell-based; conditions: diabetic islets + 10μM, 48 hours; n=7-8
[12] = test system: youth with type 2 diabetes; format: in vivo, human
[13] = test system: patients with obesity and T2D; format: in vivo, human
EndoC-βH1 cells = format: cell-based, human; conditions: 100 nM
[14] = 10 mg once daily, LS mean (95% CI)
[15] = before RYGB, GIP […], GLP-1 1 pmol/kg/min, ~15 mM glucose

## 3-hydroxybutyrate [3-OHB]
[1]; CTR, from 0.2±0.03
  blood D-3-OHB concentration during infusion: 1.0 ± 0.1 mmol/L
[1]; CTR, from 0.48±0.09
  circulating FFA concentration after infusion: 0.21 ± 0.04 mmol/L
[1]; T1DM, from 0.2±0.06
  blood D-3-OHB concentration during infusion: 1.2 ± 0.12 mmol/L
[1]; T1DM, from 0.68±0.12
  circulating FFA concentration after infusion: 0.15 ± 0.03 mmol/L

## O=C1CCc2ccc(OCCCCN3CCN(c4cccc(Cl)c4Cl)CC3)cc2N1 [ARI, aripiprazole]
[2]
  reduction of basal and insulin-stimulated glucose uptake: ≤ 70%
[2]; supra-therapeutic concentrations, 14 days
  reduction of preadipocyte differentiation rate: ≤ 80%

## OC[C@H]1O[C@@H](c2ccc(F)c(Cc3cc4ccccc4s3)c2)[C@H](O)[C@@H](O)[C@@H]1O [Ipr, ipragliflozin]
[3]
  change in visceral fat area: -17.8%

## CCC(CCC(C)O)COC(=O)c1ccccc1C(=O)O (centres unmarked) [MEHHP, mono(2-ethyl-5-hydroxyhexyl) phthalate]
[4]
  OR for NAFLD per unit increase of urinary concentration: 1.01

## CCC(CCC(C)=O)COC(=O)c1ccccc1C(=O)O (centres unmarked) [MEOHP, mono(2-ethyl-5-oxohexyl) phthalate]
[4]
  OR for NAFLD per unit increase of urinary concentration: 1.01

## Cc1cc2c(s1)Nc1ccccc1N=C2N1CCN(C)CC1 [OLA, olanzapine]
[2]; 0.2 and 2 μM during differentiation
  adipogenesis or lipid and glucose metabolism: did not affect
[2]; present during differentiation
  increase in LEP expression: ~ 2 fold

## Cc1cnc(C(=O)O)c[n+]1[O-] [acipimox]
Patients with T2D; acute, at all visits
  reduction of FFAs: ~ 35%
Patients with T2D; during empagliflozin treatment
  change in LVEF with acipimox: -6±2%
Patients with T2D; during insulin treatment
  change in LVEF with acipimox: -5.4±1%

## CNC[C@H](O)c1ccc(O)c(O)c1 [adrenaline]
Human delta cells
  change in K+-stimulated exocytosis: +56%
  change in K+-stimulated exocytosis vs diazoxide only: -59%

## N=C(N)NCCC[C@H](N)C(=O)O [arginine]
[5]
  Ins2 gene activity state: inducing transitions from Ins2^GFP(low) states to Ins2^GFP(high) states

## CCOc1ccc(Cc2cc([C@@H]3O[C@H](CO)[C@@H](O)[C@H](O)[C@H]3O)ccc2Cl)cc1 [dapagliflozin]
[6]; 10mg/day
  urinary glucose excretion: 36 gram/24-hour
[6]; 10mg/day, whole-room indirect calorimetry
  24-hour RER: 0.814 ± 0.006
[6]; ex vivo skeletal muscle
  coupled mitochondrial respiration on lipid-derived substrates (O2-flux): 68.2 ± 3.2 pmol/mg/s
T2DM and NGT subjects; NGT
  EGP after drug: 2.1±0.16
  increase in renal glucose production (RGP): 0.032 mg/kg.min
T2DM and NGT subjects; T2DM
  EGP after drug: 2.43±0.15
  increase in renal glucose production (RGP): 0.065 mg/kg.min
T2DM and NGT subjects; in vivo
  increase in total body EGP: 0.45 mg/kg.min
[7]; [14]
  PCr recovery rate: 23.1 (20.7-25.5) s
  acetylcarnitine levels in muscle: 114.56 (91.16-137.95) pmoles*mg tissue^-1
  lipid droplet size: 0.28 (0.20-0.36) μm^2
  mitochondrial network integrity: 1.73 (1.33-2.12)
  mitochondrial-LD interaction: 12.51 (9.70-15.32) %
[7]; muscle biopsy
  CPT1A gene expression increase: 1.33 fold
  CPT1B gene expression increase: 1.13 fold

## C=C[C@@]1(C)CC(=O)[C@]2(O)[C@@]3(C)[C@@H](O)CCC(C)(C)[C@@H]3[C@H](O)[C@H](OC(C)=O)[C@@]2(C)O1 [forskolin]
Human delta cells
  change in K+-stimulated exocytosis vs diazoxide only: +68%

## COc1ccc(Cl)cc1C(=O)NCCc1ccc(S(=O)(=O)NC(=O)NC2CCCCC2)cc1 [glibenclamide]
Patients with T2DM
  incidence of severe hypoglycaemia: 1.3 % per year

## CCCCCCCCCCCCCCCC(=O)N[C@@H](CCC(=O)NCCCC[C@H](NC(=O)[C@H](C)NC(=O)[C@H](C)NC(=O)[C@H](CCC(N)=O)NC(=O)CNC(=O)[C@H](CCC(=O)O)NC(=O)[C@H](CC(C)C)NC(=O)[C@H](Cc1ccc(O)cc1)NC(=O)[C@H](CO)NC(=O)[C@H](CO)NC(=O)[C@@H](NC(=O)[C@H](CC(=O)O)NC(=O)[C@H](CO)NC(=O)[C@@H](NC(=O)[C@H](Cc1ccccc1)NC(=O)[C@@H](NC(=O)CNC(=O)[C@H](CCC(=O)O)NC(=O)[C@H](C)NC(=O)[C@@H](N)Cc1cnc[nH]1)[C@@H](C)O)[C@@H](C)O)C(C)C)C(=O)N[C@@H](CCC(=O)O)C(=O)N[C@@H](Cc1ccccc1)C(=O)N[C@H](C(=O)N[C@@H](C)C(=O)N[C@@H](Cc1c[nH]c2ccccc12)C(=O)N[C@@H](CC(C)C)C(=O)N[C@H](C(=O)N[C@@H](CCCNC(=N)N)C(=O)NCC(=O)N[C@@H](CCCNC(=N)N)C(=O)NCC(=O)O)C(C)C)[C@@H](C)CC)C(=O)O [liraglutide]
[8]
  PRR for gallbladder or biliary diseases: 5.001

## CC(C)c1nc(N(C)S(C)(=O)=O)nc(-c2ccc(F)cc2)c1/C=C/[C@@H](O)C[C@@H](O)CC(=O)O [monotherapy, rosuvastatin]
Participants with NAFLD; baseline 18.1 (combination), 15.0 (monotherapy)
  MRI-PDFF at study completion: 12.4%
Participants with NAFLD; baseline 321 (combination), 323 (monotherapy)
  CAP by transient elastography at completion: 311 dB/m

## NC(=O)N1c2ccccc2CC(=O)c2ccccc21 [oxcarbazepine]
Human β-cells
  cytokine- and ER stress-induced β-cell death: protected

## CCc1ccc(CCOc2ccc(CC3SC(=O)NC3=O)cc2)nc1 (centres unmarked) [pioglitazone]
[9]
  achieved HbA1c: 59.5 mmol/mol
[9]; [95%CI]
  weight on therapy higher than other drugs: 2.6 [2.3, 2.9] kg

## CC[C@H](C)[C@H](NC(=O)[C@H](Cc1ccccc1)NC(=O)[C@H](CCC(=O)O)NC(=O)[C@H](CCCCNC(=O)COCCOCCNC(=O)COCCOCCNC(=O)CC[C@H](NC(=O)CCCCCCCCCCCCCCCCC(=O)O)C(=O)O)NC(=O)[C@H](C)NC(=O)[C@H](C)NC(=O)[C@H](CCC(N)=O)NC(=O)CNC(=O)[C@H](CCC(=O)O)NC(=O)[C@H](CC(C)C)NC(=O)[C@H](Cc1ccc(O)cc1)NC(=O)[C@H](CO)NC(=O)[C@H](CO)NC(=O)[C@@H](NC(=O)[C@H](CC(=O)O)NC(=O)[C@H](CO)NC(=O)[C@@H](NC(=O)[C@H](Cc1ccccc1)NC(=O)[C@@H](NC(=O)CNC(=O)[C@H](CCC(=O)O)NC(=O)C(C)(C)NC(=O)[C@@H](N)Cc1cnc[nH]1)[C@@H](C)O)[C@@H](C)O)C(C)C)C(=O)N[C@@H](C)C(=O)N[C@@H](Cc1c[nH]c2ccccc12)C(=O)N[C@@H](CC(C)C)C(=O)N[C@H](C(=O)N[C@@H](CCCNC(=N)N)C(=O)NCC(=O)N[C@@H](CCCNC(=N)N)C(=O)NCC(=O)O)C(C)C [semaglutide]
[8]
  PRR for gallbladder or biliary diseases: 6.267

## N[C@@H](CC(=O)N1CCn2c(nnc2C(F)(F)F)C1)Cc1cc(F)c(F)cc1F [sitagliptin]
[9]
  achieved HbA1c: 59.9 mmol/mol
db/db mice retinas; eye drops 5 μL/eye, 10 mg/mL, twice per day, 2 weeks
  diabetes-induced down-regulation of presynaptic proteins: inhibits this diabetes-induced down-regulation
db/db mice retinas; topical
  blood glucose levels: without any effect

## CCCC(=O)O [sodium butyrate]
[5]
  Ins2 gene activity state: inducing transitions from Ins2^GFP(low) states to Ins2^GFP(high) states

## Bone morphogenetic protein-7 [BMP7]
[10]; 0.5 μg per wound/day topical, vs vehicle
  acceleration of wound closure: 20%
[10]; mouse, in vivo
  number of lymphocytes in diabetic wounds: did not change
[10]; vs vehicle-treated wounds
  collagen deposition higher: 35%
  increase in area of granulation tissue: 50%
  reduction in number of macrophages: 30%

## GABA
Human delta cells
  change in K+-stimulated exocytosis vs diazoxide only: +66%

## Irisin
HFD/STZ C57Bl/6 mice; 0.5 μg/g, 14 days
  change in body weight vs HFD/STZ: -13%
HFD/STZ C57Bl/6 mice; 0.5 μg/g, 14 days, n=4
  change in glycemia vs HFD/STZ: -31%
HFD/STZ C57Bl/6 mice; mouse, in vivo
  change in GSIS AUC vs HFD/STZ: +23%
  change in alpha-cell area vs HFD/STZ: -49%
  change in beta-cell area vs HFD/STZ: +34%
  change in insulin content vs HFD/STZ: +36%
  change in islets volume vs HFD/STZ: +61%
HFD/STZ C57Bl/6 mice; vs SD and HFD/STZ
  increase in beta-cell proliferation rate: 9 fold
C57BL/6J mice; 0.5 μg/g i.p., 4 weeks, HFD 49.67 ± 1.48
  final body weight: 44.87 ± 1.42 g
C57BL/6J mice; HFD 14.56 ± 0.43
  fat mass: 11.75 ± 0.78 g
C57BL/6J mice; HFD 29.37 ± 0.75
  fat/weight: 26.08 ± 1.09%

## PF-4708671 [S6Ki]
[11]
  glucose-stimulated increase in OCR above baseline: 203.94±39.24%
  oligomycin-induced decrease in OCR: 240.32±9.71%

## dehydroaripiprazole [DARI]
[2]
  reduction of basal and insulin-stimulated glucose uptake: ≤ 70%

## dulaglutide
[12]; 26 weeks
  BMI change: No effect
[12]; pooled doses
  incidence of diarrhoea: 18.4%
  incidence of nausea: 14.6%
  incidence of vomiting: 15.5%
[12]; pooled doses 0.75 and 1.5 mg, 26 weeks
  patients requiring rescue therapy: 2.9%

## glucagon-like peptide-1 [GLP-1]
[13]; 3 months after RYGB
  augmentation of second phase insulin secretion vs saline-clamp: +233±32%
[13]; [15]
  augmentation of second phase insulin secretion vs saline-clamp: +399±84%
[5]
  Ins2 gene activity state: inducing transitions from Ins2^GFP(low) states to Ins2^GFP(high) states

## glucose-dependent insulinotropic peptide [GIP]
[13]; 3 months after RYGB
  augmentation of second phase insulin secretion vs saline-clamp: +90±14%
[13]; [15]
  augmentation of second phase insulin secretion vs saline-clamp: +96±16%

## insulin-like growth factor binding protein 7 [IGFBP7]
EndoC-βH1 cells; 72 h, CTRL 5.2, n=4
  insulin secretion normalised to total insulin: 4.0 %/h
EndoC-βH1 cells; acute, CTRL 111, n=5
  C-peptide secretion at 20 mM glucose: 90 ng/mg prot/h
